Measurements as given in patent US20240262825A1, “PAIN TREATING COMPOUNDS AND USES THEREOF” (BIONOMICS LIMITED, priority 2018, published 2024).

Biological target: T1, hNav1.7 (Homo sapiens, UniProt Q15858)
T1 construct: expressed in transfected cells
Test: hNav1.7 inactivated state (SIS) automated patch clamp electrophysiology
Assay type: cell-based
Conditions: Assay Conc. 10 uM; inactivated state protocol, HEK cells, whole-cell Patchliner
Procedure: hNav1.7, hNav1.2, hNav1.3, hNav1.4, hNav1.5, hNav1.6 were stably expressed in human embryonic kidney cells and kept under constant antibiotic selection. For in vitro assays, cells were maintained in appropriate growth medium at 37° C. and 5% CO2 in a humidified incubator.
Nav1.x expressing cells plated in T-25 flasks for 2-3 days prior to use and grown to 70-85% confluence were briefly trypsinized to obtain a single cell suspension of ˜2-3×10^6 cells/ml. All electrophysiological recordings were performed at ambient temperature (21-23° C.) using automated patch clamp (Patchliner, Nanion Technologies GmbH) in the whole-cell configuration using the following solutions: Internal solution contained (in mM): CsCl (50), NaCl (10), CsF (60), EGTA (20), HEPES (10), pH 7.2 KOH, 285 mOsmol·Kg^−1. External (bath) solution contained (in mM): NaCl (140), KCl (4), MgCl2 (1), CaCl2 (2) D-Glucose monohydrate (5), HEPES (10), pH 7.4 NaOH, 298 mOsmol·kg^−1.
For each Nav1.x channel, a steady state inactivation curve was obtained in order to calculate the voltage resulting in 50% channel inactivation (V0.5inact). A 2 pulse protocol was then employed in which cells held at a voltage corresponding to 20 mV more negative to V0.5 inact were depolarised to −10 mV for 20 ms before returning to the previous holding voltage. This test pulse constituted P1 and represents 100% available (non-inactivated) Nav1.x channels. The same cell was then depolarised for 8 s to a voltage corresponding to 7 mV more positive than V0.5inact in order to cause channel inactivation. Following a brief (2 ms) hyperpolarising voltage step to −120 mV (to reset the activation gate), cells were again subjected to a depolarising test pulse (P2) to −10 mV for 20 ms before returning to the holding potential. Each sequence was repeated 6×at 30 s intervals. Using this protocol, control P2 current amplitudes (representing the % channels available following 8 s inactivation) was ˜50% of control P1 current amplitude. 6 repetitions of this recording sequence were made in the control bath solution and then again 2 minutes after compound addition and thereafter at increasing compound concentrations. % inhibition was calculated by (1−(P2drug at repetition 6/P2control at repetition 6))*100. Data were either presented as % block by a single concentration of drug or an estimated eIC50 determined from 2-3 drug concentrations which was determined by fitting data with a sigmoidal dose response curve (variable slope) using GraphPad Prism software (Version 6.0).
All compounds were dissolved in DMSO to 20 mM initially. Subsequent dilutions in DMSO were made to achieve 200×final bath concentrations. DMSO compound stocks were finally diluted 1/200 in bath solution just prior to assay resulting in a final DMSO concentration of 0.5% which was not found to affect control current amplitude.

T1 sequence (Q15858 whole entry): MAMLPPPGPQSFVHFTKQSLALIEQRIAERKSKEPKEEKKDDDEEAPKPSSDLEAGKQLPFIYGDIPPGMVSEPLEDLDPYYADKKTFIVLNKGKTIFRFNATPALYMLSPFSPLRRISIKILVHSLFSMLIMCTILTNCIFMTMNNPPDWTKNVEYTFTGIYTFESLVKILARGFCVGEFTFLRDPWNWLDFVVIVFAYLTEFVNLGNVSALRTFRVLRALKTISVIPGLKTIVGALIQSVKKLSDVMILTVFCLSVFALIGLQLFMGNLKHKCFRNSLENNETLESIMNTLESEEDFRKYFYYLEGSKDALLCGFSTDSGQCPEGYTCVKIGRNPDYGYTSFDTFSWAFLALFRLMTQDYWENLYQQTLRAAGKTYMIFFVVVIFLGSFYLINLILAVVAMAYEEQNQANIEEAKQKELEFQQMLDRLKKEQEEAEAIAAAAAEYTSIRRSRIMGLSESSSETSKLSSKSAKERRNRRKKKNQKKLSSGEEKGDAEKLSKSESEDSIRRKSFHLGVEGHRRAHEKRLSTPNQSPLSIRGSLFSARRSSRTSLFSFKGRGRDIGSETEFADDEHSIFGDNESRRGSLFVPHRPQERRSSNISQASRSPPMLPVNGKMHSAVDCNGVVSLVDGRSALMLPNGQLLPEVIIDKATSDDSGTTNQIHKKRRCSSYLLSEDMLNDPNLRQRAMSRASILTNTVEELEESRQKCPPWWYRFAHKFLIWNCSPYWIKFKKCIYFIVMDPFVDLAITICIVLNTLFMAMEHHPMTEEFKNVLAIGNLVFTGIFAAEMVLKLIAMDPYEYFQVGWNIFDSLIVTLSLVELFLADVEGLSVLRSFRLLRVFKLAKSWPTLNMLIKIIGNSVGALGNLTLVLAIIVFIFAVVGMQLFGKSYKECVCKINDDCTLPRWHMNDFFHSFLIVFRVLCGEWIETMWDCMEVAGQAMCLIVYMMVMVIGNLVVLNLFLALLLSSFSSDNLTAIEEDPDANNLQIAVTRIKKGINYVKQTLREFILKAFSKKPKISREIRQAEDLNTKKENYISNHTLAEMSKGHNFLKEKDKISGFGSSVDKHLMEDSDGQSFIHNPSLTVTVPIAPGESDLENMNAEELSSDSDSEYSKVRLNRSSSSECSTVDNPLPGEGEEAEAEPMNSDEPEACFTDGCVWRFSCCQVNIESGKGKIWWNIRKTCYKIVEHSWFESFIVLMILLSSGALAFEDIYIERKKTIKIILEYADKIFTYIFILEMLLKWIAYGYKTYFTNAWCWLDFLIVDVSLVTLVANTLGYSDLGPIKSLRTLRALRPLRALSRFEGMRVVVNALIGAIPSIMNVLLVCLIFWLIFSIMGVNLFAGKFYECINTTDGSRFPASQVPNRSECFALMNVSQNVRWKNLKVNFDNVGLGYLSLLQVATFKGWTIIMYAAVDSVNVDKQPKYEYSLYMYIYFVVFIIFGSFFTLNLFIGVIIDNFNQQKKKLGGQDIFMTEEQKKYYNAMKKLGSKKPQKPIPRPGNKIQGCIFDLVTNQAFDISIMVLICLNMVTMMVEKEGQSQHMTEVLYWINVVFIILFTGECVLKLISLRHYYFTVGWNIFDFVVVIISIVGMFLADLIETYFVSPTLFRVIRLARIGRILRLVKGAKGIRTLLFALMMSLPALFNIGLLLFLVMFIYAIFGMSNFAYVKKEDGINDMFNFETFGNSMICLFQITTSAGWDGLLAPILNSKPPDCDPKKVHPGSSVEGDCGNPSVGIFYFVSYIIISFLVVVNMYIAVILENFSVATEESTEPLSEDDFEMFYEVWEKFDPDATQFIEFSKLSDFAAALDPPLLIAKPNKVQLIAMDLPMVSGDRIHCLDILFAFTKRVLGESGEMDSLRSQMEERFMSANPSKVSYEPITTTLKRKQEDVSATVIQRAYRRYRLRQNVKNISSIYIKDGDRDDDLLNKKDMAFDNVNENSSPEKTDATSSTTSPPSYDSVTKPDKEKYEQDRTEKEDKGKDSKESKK

SMILES | hNav1.7 SIS (% inh) [%]
O=C(NCc1ccc(OCc2ccccc2F)cc1)c1cn2ccccc2n1 [Compound 25] | 71

Same assay, conditions: HEK293, Assay Conc. 3 uM; inactivated state protocol, HEK cells, whole-cell Patchliner; read-out: hNav1.7 SIS (% inh)

SMILES | inhibition at 3 µM [%]
O=C(NCc1ccc(OCc2ccccc2F)cc1)c1csc(C(F)(F)F)n1 [Compound 23] | 61

Same assay, conditions: HEK293, Assay Conc. 10 uM; inactivated state protocol, HEK cells, whole-cell Patchliner; read-out: hNav1.7 SIS (% inh)

SMILES | inhibition at 10 µM [%]
O=C(NCc1ccc(OCc2ccccc2F)cc1)c1cccnc1 [Compound 1] | 41
O=C(NCc1ccc(OCc2ccccc2F)cc1)c1cc2cccn2cn1 [Compound 2] | 48
O=C(NCc1ccc(OCc2ccccc2F)cc1)c1cn[nH]c1 [Compound 3] | 34
CN(Cc1ccc(OCc2ccccc2F)cc1)C(=O)c1csc(C(F)(F)F)n1 [Compound 4] | 36
Cc1nc(C(=O)NCc2ccc(OCc3ccccc3F)cc2)cs1 [Compound 5] | 39
COc1ncc(C(=O)NCc2ccc(OCc3ccccc3F)cc2)cn1 [Compound 6] | 47
CC(C)(Oc1ccc(CNC(=O)c2cccn3cnnc23)cc1)c1ccccc1F [Compound 7] | 35
Cc1n[nH]c(C(=O)NCc2ccc(OCc3ccccc3F)cc2)n1 [Compound 8] | 44
O=C(NCc1ccc(OCc2ccccc2F)cc1)c1nnc(C2CC2)o1 [Compound 9] | 35
O=C(NCc1ccc(OCc2ccccc2F)cc1)c1ccn2cnnc2c1 [Compound 10] | 30
O=C(NCc1ccc(OCc2ccccc2F)cc1)c1cc[nH]c(=O)c1 [Compound 11] | 34
Cn1ccc(C(=O)NCc2ccc(OCc3ccccc3F)cc2)cc1=O [Compound 12] | 35
O=C(NCc1ccc(OCc2ccccc2F)cc1)c1cccc2ncnn12 [Compound 13] | 42
O=C(NCc1ccc(OCc2ccccc2F)cc1)c1cccn2ncnc12 [Compound 14] | 49
O=C(NCc1ccc(OCc2ccccc2F)cc1)c1ccn2ncnc2c1 [Compound 15] | 51
Cn1cccc(C(=O)NCc2ccc(OCc3ccccc3F)cc2)c1=O [Compound 16] | 32
COc1ncccc1C(=O)NCc1ccc(OCc2ccccc2F)cc1 [Compound 17] | 32
O=C(NCc1ccc(OCc2ccccc2F)cc1)c1ccn2cncc2c1 [Compound 18] | 50
O=C(NCc1ccc(OCc2ccccc2F)cc1)c1cccc2cncn12 [Compound 19] | 35
O=C(NCc1ccc(OCc2ccccc2F)cn1)c1cccn2cnnc12 [Compound 20] | 36
O=C(NCc1ccc(OCc2ccccc2F)cc1)c1cscn1 [Compound 21] | 52
Cc1cnc(C(=O)NCc2ccc(OCc3ccccc3F)cc2)cn1 [Compound 22] | 59
COC[C@H](C)N(Cc1ccc(OCc2ccccc2F)cc1)C(=O)c1cn2ccccc2n1 [Compound 24] | 63
CN(Cc1ccc(OCc2ccccc2F)cc1)C(=O)c1cn2ccccc2n1 [Compound 27] | 92
O=C(NCc1ccc(OCc2ccccc2F)cc1)c1ccc2cncn2c1 [Compound 46] | 34
O=C(NCc1ccc(OCC2CCCC2)cc1)c1ccn2ccnc2c1 [Compound 52] | 45
O=C(NCc1ccc(OCc2ccccc2F)cc1)c1cn2ccccc2n1 [Compound 53] | 56

Same assay, conditions: estimated eIC50 from 2-3 drug concentrations; inactivated state protocol

SMILES | IC50 [µM]
O=C(NCc1ccc(OCc2ccccc2F)cc1)c1csc(C(F)(F)F)n1 [Compound 23] | 1.9
COC[C@H](C)N(Cc1ccc(OCc2ccccc2F)cc1)C(=O)c1cn2ccccc2n1 [Compound 24] | 7.2
O=C(NCc1ccc(OCc2ccccc2F)cc1)c1cn2ccccc2n1 [Compound 25] | 5.7
O=C(NCc1ccc(OCc2ccccc2F)cc1)c1ccn2ccnc2c1 [Compound 26] | 5.2
CN(Cc1ccc(OCc2ccccc2F)cc1)C(=O)c1cn2ccccc2n1 [Compound 27] | 4.3
CC(C)(Oc1ccc(CNC(=O)c2cccn3ccnc23)cc1)c1ccccc1F [Compound 28] | 2.6
CC(C)(Oc1ccc(CNC(=O)c2ccn3ccnc3c2)cc1)c1ccccc1F [Compound 29] | 6.5
O=C(NCc1ccc(OCc2ccccc2F)cc1)c1cccn2nnnc12 [Compound 30] | 7.5
O=C(NCc1ccc(OCc2ccccc2F)cc1)c1nccn2ccnc12 [Compound 31] | 3.2
Cn1cnc(C(=O)NCc2ccc(OCc3ccccc3F)cc2)n1 [Compound 32] | 5.9
O=C(NCc1ccc(OCc2ccccc2F)cc1)c1nc(C(F)(F)F)cs1 [Compound 33] | 7.5
Cc1csc(C(=O)NCc2ccc(OCc3ccccc3F)cc2)n1 [Compound 34] | 9.4
Cc1nc(C(=O)NCc2ccc(OCc3ccccc3F)cc2)sc1C [Compound 35] | 5.5
Cc1cccc(C(=O)NCc2ccc(OCc3ccccc3F)cc2)n1 [Compound 36] | 5.6
O=C(NCc1ccc(OCc2ccccc2F)cc1)c1cnc2ccccn12 [Compound 37] | 8.9
O=C(NCc1ccc(OCc2ccccc2F)cc1)c1cccc2ccnn12 [Compound 38] | 3.2
O=C(NCc1ccc(OCc2ccccc2F)cc1)c1cccn2cnnc12 [Compound 39] | 4.1
O=C(NCc1ccc(OCc2ccccc2F)cc1)c1cccn2ccnc12 [Compound 40] | 3.5
Cc1cc(C(=O)NCc2ccc(OCc3ccccc3F)cc2)n(C)n1 [Compound 41] | 8.9
CC(C)c1cc(C(=O)NCc2ccc(OCc3ccccc3F)cc2)n[nH]1 [Compound 42] | 6.2
Cc1nc(C(=O)NCc2ccc(OCc3ccccc3F)cc2)cn1C [Compound 43] | 8.6
COC[C@@H](C)N(Cc1ccc(OCc2ccccc2F)cc1)C(=O)c1cn2ccccc2n1 [Compound 44] | 6.3
O=C(NCc1ccc(OCc2ccccc2F)cc1)c1cccn2cncc12 [Compound 45] | 7.6
O=C(NCc1ccc(OCC2CCCCC2)cc1)c1ccc2cncn2c1 [Compound 47] | 3.6
O=C(NCc1ccc(OCC2CCCCC2)cc1)c1ccn2ccnc2c1 [Compound 48] | 5.7
O=C(NCc1ccc(OCC2CCCCC2)cc1)c1cccn2cnnc12 [Compound 49] | 2.5
O=C(NCc1ccc(OCC2CCCCC2)cc1)c1cn2ccccc2n1 [Compound 50] | 3.2
O=C(NCc1ccc(OCC2CCCC2)cc1)c1cccn2cnnc12 [Compound 51] | 0.98
